Results: patent US20250195502A1, “APPLICATION OF TETRACYCLIC COMPOUND IN TREATMENT OF TUMORS” (SHANGHAI SHIJIANG BIOTECHNOLOGY CO., LTD, priority 2022, published 2025)

These molecules were tested on SF126 (human glioblastoma multiforme cell) (assay: Cell viability assay (Promega CellTiter-Glo), inhibitory effect on SF126). Settings: 72 h, SF-126, 3 days of culture, Table 3, read-out: inhibitory effect on SF-126 (IC50).
Assay type: cell-based
Method: (§1) The inhibitory effect of the compounds prepared in the Examples of the present invention on various tumor cell lines was detected using cell viability assay reagent.
(§2) Cell viability was detected using the Promega CellTiter-Glo kit, cell viability was determined by directly measuring intracellular ATP content. In the experiment, the ICso value of the compounds prepared in the Examples of the present invention on various tumor cell lines was detected.
(§3) Each tumor cell was cultured in relevant medium. After cell passage, the gradient diluted compounds prepared in the Examples of the present invention was added. After 3 days of culture, the relevant IC50 (50% inhibiting concentration) was measured. The name, source and culture conditions of each tumor cell line were as follows:
Cell line SF126 (JCRB, No. IFO50286) was cultured in 10% fetal bovine serum-containing EMEM medium (+P/S).
(§4) The inhibitory effect of the compounds prepared in the Examples of the present invention on various brain tumor cell lines was detected using cell viability assay reagent.
(§5) Cell viability was detected using the Promega CellTiter-Glo kit, cell viability was determined by directly measuring intracellular ATP content. In the experiment, the IC50 value of the compounds prepared in the Examples of the present invention on various brain tumor cell lines was detected.
For `CCCCCc1c2[n+](cc3c(OC)c(OC)ccc13)CCc1cc3c(cc1-2)OCO3` [compound AB31758], the IC50 was 5140 nM. With `CCCCCCc1c2[n+](cc3c(OC)c(OC)ccc13)CCc1cc3c(cc1-2)OCO3` [compound AB31759] the IC50 was 3940 nM.

Same assay, conditions: SF-126, 72 h, SF126, 3 days of culture, Table 4, read-out: inhibitory effect on brain cell line SF126 (IC50)
`CCCCCc1c2[n+](cc3c(OC)c(OC)ccc13)CCc1cc3c(cc1-2)OCO3` [compound AB31758] was tested, and the IC50 was 5140 nM. For `CCCCCCc1c2[n+](cc3c(OC)c(OC)ccc13)CCc1cc3c(cc1-2)OCO3` [compound AB31759], the IC50 was 3940 nM.

These molecules were tested on NB-1 (brain neuroblastoma cell) (assay: Cell viability assay (Promega CellTiter-Glo), inhibitory effect on NB-1). Settings: Homo sapiens, 72 h, 3 days of culture, read-out: inhibitory effect on brain cell line NB-1 (IC50).
Assay type: cell-based
Method: as §4, §5, §3
Cell line NB-1 (ATCC, No. HTB-131) was cultured in 10% fetal bovine serum-containing Leibovitz's L-15 medium (+P/S).
Work on `CCCCCc1c2[n+](cc3c(OC)c(OC)ccc13)CCc1cc3c(cc1-2)OCO3` [compound AB31758] yielded an IC50 of 120 nM. For `CCCCCCc1c2[n+](cc3c(OC)c(OC)ccc13)CCc1cc3c(cc1-2)OCO3` [compound AB31759], the IC50 was 120 nM.

What follows are molecules tested on NCI-H82 (human small cell lung cancer cell) (assay: Cell viability assay (Promega CellTiter-Glo), inhibitory effect on NCI-H82). Settings: 72 h, 3 days of culture.
Assay type: cell-based
Method: as §1, §2, §3
Cell line NCI-H82 (ATCC, No. HTB-175) was cultured in 10% fetal bovine serum-containing RPMI1640 medium (+P/S).
For `CCCCCc1c2[n+](cc3c(OC)c(OC)ccc13)CCc1cc3c(cc1-2)OCO3` [compound AB31758], the IC50 was 360 nM. Molecule `CCCCCCc1c2[n+](cc3c(OC)c(OC)ccc13)CCc1cc3c(cc1-2)OCO3` [compound AB31759] has an IC50 of 270 nM.

These molecules were tested on Kelly (brain neuroblastoma cell) (assay: Cell viability assay (Promega CellTiter-Glo), inhibitory effect on Kelly). Settings: Homo sapiens, 72 h, 3 days of culture, read-out: inhibitory effect on brain cell line Kelly (IC50).
Assay type: cell-based
Method: as §4, §5, §3
Cell line Kelly (ECACC, No. 92110411) was cultured in 10% fetal bovine serum and 2 mM glutamine-containing RPMI1640 medium.
For `CCCCCc1c2[n+](cc3c(OC)c(OC)ccc13)CCc1cc3c(cc1-2)OCO3` [compound AB31758], the IC50 was 590 nM. `CCCCCCc1c2[n+](cc3c(OC)c(OC)ccc13)CCc1cc3c(cc1-2)OCO3` [compound AB31759] gave an IC50 of 410 nM.

What follows are molecules tested on G-401 (human renal carcinoma Wilms cell) (assay: Cell viability assay (Promega CellTiter-Glo), inhibitory effect on G-401). Settings: 72 h, 3 days of culture.
Assay type: cell-based
Method: as §1, §2, §3
Cell line G-401 (ATCC, No. CRL-1441) was cultured in 10% fetal bovine serum-containing McCoy's 5a medium (+P/S).
`CCCCCc1c2[n+](cc3c(OC)c(OC)ccc13)CCc1cc3c(cc1-2)OCO3` [compound AB31758] gave an IC50 of 420 nM. With `CCCCCCc1c2[n+](cc3c(OC)c(OC)ccc13)CCc1cc3c(cc1-2)OCO3` [compound AB31759] the IC50 was 310 nM.

These molecules were tested on sh-DNMT1 NCI-H82 cell (DNMT1 knocked down NCI-H82) (assay: Cell viability assay (Promega CellTiter-Glo), inhibitory effect on sh-DNMT1 NCI-H82 cell). Settings: Homo sapiens, NCI-H82 with DNMT1 knocked down by shRNA.
Assay type: cell-based
Method: (§6) The role of expression level of NNMT gene and DNMT1 in the sensitivity of NCI-H82 cell to the compounds prepared in the Examples of the present invention was determined
(§7) The expression of NNMT protein in NCI-H82 cell was overexpressed by inserting the NNMT gene into NCI-H82 cell using a viral vector, and the NNMT protein-overexpressing NCI-H82 cell (ov-NNMT NCI-H82 cell) was obtained. The expression of DNMT1 in NCI-H82 cell was knocked down transfecting (the by shRNA nucleotide sequence of shRNA was […] TTTTTG (SEQ ID No: 2)) using a viral vector, and the NCI-H82 cell with low expression of DNMT1 protein (sh-DNMT1 NCI-H82 cell) was obtained. The control NCI-H82 cell (Con-NCI-H82 cell) was obtained by transfecting NCI-H82 cell with empty virus vector without carrying NNMT gene and shRNA. The expressing content of NNMT protein and DNMT1 protein in the Con-NCI-H82 cell, the expressing content of NNMT protein in the ov-NNMT NCI-H82 cell, and the expressing content of DNMT1 protein in the sh-DNMT1 NCI-H82 cell were detected using Western Blot assay (as shown in FIG. 15 and FIG. 16), it could be seen from FIG. 15 and FIG. 16 that the NNMT protein was overexpressed in the ov-NNMT NCI-H82 cell and the expression of DNMT1 protein was knocked down (i.e, low expression) in the sh-DNMT1 NCI-H82 cell compared with the expression level of NNMT protein and DNMT protein in the Con-NCI-H82 cell.
For `CCCCCc1c2[n+](cc3c(OC)c(OC)ccc13)CCc1cc3c(cc1-2)OCO3` [compound AB31758], the IC50 was 1380 nM. Molecule `CCCCCCc1c2[n+](cc3c(OC)c(OC)ccc13)CCc1cc3c(cc1-2)OCO3` [compound AB31759] has an IC50 of 1180 nM.

These molecules were tested on GB-1 (human brain glioblastoma cell) (assay: Cell viability assay (Promega CellTiter-Glo), inhibitory effect on GB-1). Settings: 72 h, 3 days of culture, Table 3, read-out: inhibitory effect on GB-1 (IC50).
Assay type: cell-based
Method: as §1, §2, §3
Cell line GB-1 (JCRB, No. IFO50489) was cultured in 10% fetal bovine serum-containing DMEM medium (+P/S).
as §4, §5
In the case of `CCCCCc1c2[n+](cc3c(OC)c(OC)ccc13)CCc1cc3c(cc1-2)OCO3` [compound AB31758], the IC50 is reported as 6470 nM. For `CCCCCCc1c2[n+](cc3c(OC)c(OC)ccc13)CCc1cc3c(cc1-2)OCO3` [compound AB31759], the IC50 was 3470 nM.

Same assay, conditions: 72 h, 3 days of culture, Table 4, read-out: inhibitory effect on brain cell line GB-1 (IC50)
`CCCCCc1c2[n+](cc3c(OC)c(OC)ccc13)CCc1cc3c(cc1-2)OCO3` [compound AB31758] gave an IC50 of 6470 nM. `CCCCCCc1c2[n+](cc3c(OC)c(OC)ccc13)CCc1cc3c(cc1-2)OCO3` [compound AB31759] gave an IC50 of 3470 nM.

The molecules below were run on D341 Med (cerebellar medulloblastoma cell) (assay: Cell viability assay (Promega CellTiter-Glo), inhibitory effect on D341 Med). Settings: Homo sapiens, 72 h, 3 days of culture, read-out: inhibitory effect on brain cell line D341 Med (IC50).
Assay type: cell-based
Method: as §4, §5, §3
Cell line D341 Med (ATCC, No. HTB-187) was cultured in 20% fetal bovine serum-containing EMEM medium (+P/S).
Work on `CCCCCc1c2[n+](cc3c(OC)c(OC)ccc13)CCc1cc3c(cc1-2)OCO3` [compound AB31758] yielded an IC50 of 980 nM. `CCCCCCc1c2[n+](cc3c(OC)c(OC)ccc13)CCc1cc3c(cc1-2)OCO3` [compound AB31759] was tested, and the IC50 was 850 nM.

What follows are molecules tested on 786-O (clear cell renal cell adenocarcinoma cell) (assay: Cell viability assay (Promega CellTiter-Glo), inhibitory effect on 786-O). Settings: Homo sapiens, 786-0, 72 h, 3 days of culture.
Assay type: cell-based
Method: as §1, §2, §3
Cell line 786-0 (ATCC, No. CRL-1932) was cultured in 10% fetal bovine serum-containing RPMI1640 medium (+P/S).
For `CCCCCc1c2[n+](cc3c(OC)c(OC)ccc13)CCc1cc3c(cc1-2)OCO3` [compound AB31758], the IC50 was 5410 nM. For `CCCCCCc1c2[n+](cc3c(OC)c(OC)ccc13)CCc1cc3c(cc1-2)OCO3` [compound AB31759], the IC50 was 3180 nM.

The molecules below were run on MDA-MB-453 (breast cancer cell) (assay: Cell viability assay (Promega CellTiter-Glo), inhibitory effect on MDA-MB-453). Settings: Homo sapiens, 72 h, 3 days of culture.
Assay type: cell-based
Method: as §1, §2, §3
Cell line MDA-MB-453 (ATCC, No. HTB-131) was cultured in 10% fetal bovine serum-containing Leibovitz's L-15 medium (+P/S).
`CCCCCc1c2[n+](cc3c(OC)c(OC)ccc13)CCc1cc3c(cc1-2)OCO3` [compound AB31758] gave an IC50 of 400 nM. `CCCCCCc1c2[n+](cc3c(OC)c(OC)ccc13)CCc1cc3c(cc1-2)OCO3` [compound AB31759] gave an IC50 of 310 nM.

These molecules were tested on Con-NCI-H82 cell (NCI-H82 transfected with empty virus vector) (assay: Cell viability assay (Promega CellTiter-Glo), inhibitory effect on Con-NCI-H82 cell). Settings: Homo sapiens; NCI-H82 transfected with empty virus vector (control); CellTiter-Glo; read-out: inhibitory effect on Con-NCI-H82 (IC50).
Assay type: cell-based
Method: as §6, §7
With `CCCCCc1c2[n+](cc3c(OC)c(OC)ccc13)CCc1cc3c(cc1-2)OCO3` [compound AB31758] the IC50 was 360 nM. For `CCCCCCc1c2[n+](cc3c(OC)c(OC)ccc13)CCc1cc3c(cc1-2)OCO3` [compound AB31759], the IC50 was 270 nM.

What follows are molecules tested on ov-NNMT NCI-H82 cell (NNMT protein-overexpressing NCI-H82) (assay: Cell viability assay (Promega CellTiter-Glo), inhibitory effect on ov-NNMT NCI-H82 cell). Settings: Homo sapiens.
Assay type: cell-based
Method: as §6, §7
`CCCCCc1c2[n+](cc3c(OC)c(OC)ccc13)CCc1cc3c(cc1-2)OCO3` [compound AB31758] was tested, and the IC50 was 920 nM. `CCCCCCc1c2[n+](cc3c(OC)c(OC)ccc13)CCc1cc3c(cc1-2)OCO3` [compound AB31759] showed an IC50 of 640 nM.

What follows are molecules tested on CFPAC-1 (human pancreatic cancer cell) (assay: Cell viability assay (Promega CellTiter-Glo), inhibitory effect on CFPAC-1). Settings: 72 h, 3 days of culture.
Assay type: cell-based
Method: as §1, §2, §3
Cell line CFPAC-1 (ATCC, No. CRL-1918) was cultured in 10% fetal bovine serum-containing IMDM medium (+P/S).
In the case of `CCCCCc1c2[n+](cc3c(OC)c(OC)ccc13)CCc1cc3c(cc1-2)OCO3` [compound AB31758], the IC50 is reported as 8320 nM. In the case of `CCCCCCc1c2[n+](cc3c(OC)c(OC)ccc13)CCc1cc3c(cc1-2)OCO3` [compound AB31759], the IC50 is reported as 8150 nM.

Each molecule was assayed on SW48 (human colon adenocarcinoma cell) (assay: Cell viability assay (Promega CellTiter-Glo), inhibitory effect on SW48). Settings: 72 h, 3 days of culture.
Assay type: cell-based
Method: as §1, §2, §3
Cell line SW48 (ATCC, No. CCL-231) was cultured in 10% fetal bovine serum-containing Leibovitz's L-15 medium (+P/S).
Molecule `CCCCCc1c2[n+](cc3c(OC)c(OC)ccc13)CCc1cc3c(cc1-2)OCO3` [compound AB31758] has an IC50 of 490 nM. `CCCCCCc1c2[n+](cc3c(OC)c(OC)ccc13)CCc1cc3c(cc1-2)OCO3` [compound AB31759] showed an IC50 of 310 nM.
